The results in this text go back to patent US20220380338A1, “CYCLOALKYL 3-OXOPIPERAZINE CARBOXAMIDES AND CYCLOHETEROALKYL 3-OXOPIPERAZINE CARBOXAMIDES AS NAV1.8 INHIBITORS” (Merck Sharp & Dohme LLC, priority 2021, published 2022).

SMILES strings stand for the structures.

The target in this experiment is T1, human NaV1.8 (Homo sapiens, UniProt Q9Y5Y9).
T1 construct: expressed in transfected cells
T1 sequence (Q9Y5Y9 whole entry): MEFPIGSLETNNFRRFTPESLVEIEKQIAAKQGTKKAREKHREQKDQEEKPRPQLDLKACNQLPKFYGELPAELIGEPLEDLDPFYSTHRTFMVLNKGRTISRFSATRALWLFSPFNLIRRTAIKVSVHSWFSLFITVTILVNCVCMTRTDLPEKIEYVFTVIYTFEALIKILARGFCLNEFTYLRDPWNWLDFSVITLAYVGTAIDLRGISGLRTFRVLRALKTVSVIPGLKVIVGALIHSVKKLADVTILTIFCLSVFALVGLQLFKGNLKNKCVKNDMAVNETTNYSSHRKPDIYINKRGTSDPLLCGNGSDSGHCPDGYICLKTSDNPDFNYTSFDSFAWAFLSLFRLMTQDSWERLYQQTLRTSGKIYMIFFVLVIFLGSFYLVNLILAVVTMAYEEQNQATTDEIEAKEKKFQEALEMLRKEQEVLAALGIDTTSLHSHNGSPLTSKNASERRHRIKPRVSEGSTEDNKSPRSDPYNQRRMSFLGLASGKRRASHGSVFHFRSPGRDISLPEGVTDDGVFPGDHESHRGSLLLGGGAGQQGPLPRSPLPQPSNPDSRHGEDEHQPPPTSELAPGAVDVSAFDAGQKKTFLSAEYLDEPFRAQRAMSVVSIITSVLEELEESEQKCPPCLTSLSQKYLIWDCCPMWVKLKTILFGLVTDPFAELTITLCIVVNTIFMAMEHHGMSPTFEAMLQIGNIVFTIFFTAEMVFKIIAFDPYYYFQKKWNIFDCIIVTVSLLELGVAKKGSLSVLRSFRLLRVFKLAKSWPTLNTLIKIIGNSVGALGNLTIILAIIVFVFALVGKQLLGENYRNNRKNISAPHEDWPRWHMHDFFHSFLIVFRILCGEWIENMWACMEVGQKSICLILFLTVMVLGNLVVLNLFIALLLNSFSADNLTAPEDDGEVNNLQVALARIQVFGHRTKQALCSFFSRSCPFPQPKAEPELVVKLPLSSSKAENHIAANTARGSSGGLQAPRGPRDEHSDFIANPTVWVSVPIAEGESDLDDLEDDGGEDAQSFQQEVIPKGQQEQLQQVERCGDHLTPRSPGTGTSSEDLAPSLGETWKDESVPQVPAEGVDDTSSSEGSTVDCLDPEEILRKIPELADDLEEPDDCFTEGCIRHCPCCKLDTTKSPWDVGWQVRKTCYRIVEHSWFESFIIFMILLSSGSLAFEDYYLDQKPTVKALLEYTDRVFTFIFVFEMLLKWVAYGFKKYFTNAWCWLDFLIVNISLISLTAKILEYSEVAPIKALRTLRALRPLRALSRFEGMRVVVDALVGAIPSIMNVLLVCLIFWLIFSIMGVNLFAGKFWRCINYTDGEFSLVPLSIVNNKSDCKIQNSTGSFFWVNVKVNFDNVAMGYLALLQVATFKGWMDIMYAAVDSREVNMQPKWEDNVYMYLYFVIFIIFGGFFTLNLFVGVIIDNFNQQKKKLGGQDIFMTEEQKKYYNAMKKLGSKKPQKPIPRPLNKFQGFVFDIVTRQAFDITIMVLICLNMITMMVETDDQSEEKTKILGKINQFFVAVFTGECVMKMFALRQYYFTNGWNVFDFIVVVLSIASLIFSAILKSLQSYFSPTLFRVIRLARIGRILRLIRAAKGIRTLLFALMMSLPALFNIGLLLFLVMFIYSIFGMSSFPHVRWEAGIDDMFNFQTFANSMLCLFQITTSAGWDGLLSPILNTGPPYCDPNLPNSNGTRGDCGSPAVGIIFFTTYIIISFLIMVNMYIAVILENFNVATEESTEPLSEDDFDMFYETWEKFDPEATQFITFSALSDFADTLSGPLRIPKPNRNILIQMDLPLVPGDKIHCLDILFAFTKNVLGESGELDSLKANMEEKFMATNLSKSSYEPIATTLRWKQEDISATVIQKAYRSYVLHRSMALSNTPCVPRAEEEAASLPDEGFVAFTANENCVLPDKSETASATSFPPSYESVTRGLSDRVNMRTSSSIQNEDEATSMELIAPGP
Put plainly: Nav1.8 Qube® Assay (automated 384-well patch-clamp, inhibition of sodium current). Particulars: human NaV1.8 channels stably expressed in HEK 293 cells, room temperature. The format is cell-based. In a few lines: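 Whole-cell voltage clamp at room temperature in HEK293 cells stably expressing NaV1.8; from −90 mV hold, 10 s 1 Hz train of 20 ms pulses to 10 mV with 980 ms repolarization to −67 mV. Peak currents of 1st and 10th pulses give resting and inactivated-state IC50s, Hill fit.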
A general note: The patch-clamp technique gives a direct electrical read-out from membranes.
With `C[C@@H]1C(=O)NCCN1C(=O)NC(c1ccc(F)c(Cl)c1F)C1CC2(C1)CC2(F)F` (single isomer, unassigned) [Example 22A, (2R)-N-((R or S)-(3-chloro-2,4-difluoro-phenyl)(trans or cis-1,1-difluoro-spiro[2,3]-hexan-5-yl)methyl)-2-methyl-3-oxopiperazine-1-carboxamide], half-maximal inhibition (IC50) was put at 2.9 nM.

In turn, `C[C@@H]1C(=O)NCCN1C(=O)NC(c1ccc(F)c(Cl)c1F)[C@@H]1C[C@@H]2[C@H](C1)C2(F)F` (single isomer, unassigned) [Example 11A, (R)-N-((R or S)-(3-chloro-2,4-difluoro-phenyl)((1R,3s,5S)-6,6-difluoro-bicyclo[3.1.0]hexan-3-yl)methyl)-2-methyl-3-oxo-piperazine-1-carboxamide] came in with a half-maximal inhibitory concentration (IC50) of 870 nM.

Compound `O=C1NCCN(C(=O)N[C@H](c2ccc(F)c(Cl)c2F)[C@H]2C[C@H](C(F)(F)F)C2)[C@@H]1CO` [Example 64, (R)—N—((S)-(3-chloro-2,4-difluorophenyl)((trans)-3-(trifluoromethyl)cyclobutyl)methyl)-2-(hydroxymethyl)-3-oxopiperazine-1-carboxamide] yielded an IC50 of 3.2 nM.

The compound `COC1CC(C(NC(=O)N2CCNC(=O)[C@H]2C)c2ccc(F)c(Cl)c2F)C1` (single isomer, unassigned) [Example 40D, (2R)-N-((S or R)-(3-chloro-2,4-difluoro-phenyl)(trans-3-methoxycyclobutyl)-methyl)-2-methyl-3-oxopiperazine-1-carboxamide] displayed an IC50 of 108 nM.

The compound `C[C@@H]1C(=O)NCCN1C(=O)NC(c1ccc(Cl)c(C(F)(F)F)n1)C1CC(C(F)(F)F)C1` (single isomer, unassigned) [Example 47A, (2R)—N—((R or S)-(5-chloro-6-(trifluoromethyl)pyridin-2-yl)(cis-3-(trifluoromethyl)-cyclobutyl)methyl)-2-methyl-3-oxopiperazine-1-carboxamide] showed an IC50 of 11.4 nM.

Consider `C[C@@H]1C(=O)NCCN1C(=O)NC(c1ccc(F)c(C(F)(F)F)c1)C1CCC(C(F)(F)F)OC1` (single isomer, unassigned) [Example 60B, (2R)—N-((1(R or S))-(4-fluoro-3-(trifluoromethyl)phenyl)-trans-(6-(trifluoromethyl)tetrahydro-2H-pyran-3-yl)methyl)-2-methyl-3-oxopiperazine-1-carboxamide], for which 51.2 nM corresponded to half-maximal inhibition (IC50).

The compound `C[C@@H]1C(=O)NCCN1C(=O)NC(c1ccc(F)c(Cl)c1F)C1CC2(C1)CC2(F)F` (single isomer, unassigned) [Example 22B, (2R)-N-((R or S)-(3-chloro-2,4-difluoro-phenyl)(cis or trans-1,1-difluoro-spiro[2,3]-hexan-5-yl)methyl)-2-methyl-3-oxopiperazine-1-carboxamide] displayed an IC50 of 5.89 nM.

Compound `C[C@@H]1C(=O)NCCN1C(=O)NC(c1ccc(F)c(Cl)c1F)C1CC(OC(F)F)C1` (single isomer, unassigned) [Example 39D, (2R)-N-((S or R)-(3-chloro-2,4-difluoro-phenyl)(trans-3-(difluoro-methoxy)cyclobutyL)-methyl)-2-methyl-3-oxopiperazine-1-carboxamide] registered an IC50 of 8.1 nM.

Consider `C[C@@H]1C(=O)NCCN1C(=O)NC(c1ccc(Cl)c(C(F)(F)F)n1)C1CCC(F)(F)CC1` (single isomer, unassigned) [Example 46A, (2R)-N-((R or S)-(5-chloro-6-(trifluoro-methyl)pyridin-2-yl)(4,4-difluoro-cyclohexyl)methyl)-2-methyl-3-oxo-piperazine-1-carboxamide], for which the IC50 was 343 nM.

For the compound `C[C@@H]1C(=O)NCCN1C(=O)NC(c1ccc(OC(F)(F)F)c(Cl)c1)C1CC(C(F)(F)F)C1` (single isomer, unassigned) [Example 54A, (2R)-N-((R or S)-(3-chloro-4-(trifluoro-methoxy)phenyl)(3-(trifluoromethyl)cyclo-butyl)methyl)-2-methyl-3-oxopiperazine-1-carboxamide], the midpoint of inhibition, the IC50, lay at 1.7 nM.

Consider `O=C1CN(C(=O)NC(c2ccc(F)c(C(F)(F)F)c2)[C@H]2C[C@H](C(F)(F)F)C2)CCN1` (single isomer, unassigned) [Example 52A, N-((R or S)-(4-fluoro-3-(trifluoromethyl)phenyl) (trans-3-(trifluoro-methyl)cyclobutyl)-methyl)-3-oxo-piperazine-1-carboxamide], for which the IC50 amounted to 320 nM.

`O=C1CN(C(=O)NC(c2ccc(F)c(Cl)c2)C2CC3CCC(C2)C3(F)F)CCN1` (single isomer, unassigned) [Example 2B, N-((S or R)-(3-chloro-4-fluoro-phenyl)(8,8-difluroo-bicyclo[3.2.1]octan-3-yl)methyl)-3-oxopiperazine-1-carboxamide] yielded an IC50 of 410 nM.

In turn, `C[C@@H]1C(=O)NCCN1C(=O)NC(c1ccc(F)c(Cl)c1F)C1CCC(C(F)(F)F)C1` (single isomer, unassigned) [Example 58A, (2R)—N—((R or S)-(3-chloro-2,4-difluorophenyl)(cis-3-(trifluoromethyl)cyclopentyl)methyl)-2-methyl-3-oxopiperazine-1-carboxamide] showed an IC50 of 9.23 nM.

Consider `C[C@@H]1C(=O)NCCN1C(=O)NC(c1ccc(F)c(Cl)c1)C12CC(C(F)(F)F)(C1)C2` (single isomer, unassigned) [Example 35A, (2R)-N-((R or S)-(3-chloro-4-fluoro-phenyl)(3-(trifluoro-methyl)bicyclo[1.1.1]pen-tan-1-yl)methyl)-2-methyl-3-oxopiperazine-1-carboxamide], for which the IC50 was 6.08 nM.

`C[C@@H]1C(=O)NCCN1C(=O)NC(c1ccc(F)c(Cl)c1F)[C@H]1C[C@@H]1C(F)(F)F` (single isomer, unassigned) [Example 57C] came in with an IC50 of 566 nM.

With `C[C@@H]1C(=O)NCCN1C(=O)NC(c1ccc(F)c(Cl)c1F)C1CCC(C(F)(F)F)C1` (single isomer, unassigned) [Example 58C, (2R)—N—((R or S)-(3-chloro-2,4-difluorophenyl)(trans-3-(trifluoromethyl)cyclopentyl)methyl)-2-methyl-3-oxopiperazine-1-carboxamide], the IC50 was found to be 5.1 nM.

`C[C@@H]1C(=O)NCCN1C(=O)NC(c1ccc(F)c(Cl)c1F)C1CC(C)(C)C1` (single isomer, unassigned) [Example 31A, (2R)-N-((R or S)-(3-chloro-2,4-difluoro-phenyl)(3,3-dimethyl-cyclobutyl)methyl)-2-methyl-3-oxopiperazine-1-carboxamide] showed an IC50 of 0.74 nM.

As to `C[C@@H]1C(=O)NCCN1C(=O)NC(c1ccc(F)c(Cl)c1F)C1CC(C2CC2)C1` (single isomer, unassigned) [Example 21B, (2R)-N-((R or S)-(3-chloro-2,4-difluoro-phenyl)(cis or trans-3-cyclopropylcyclobutyl)methyl)-2-methyl-3-oxopiperazine-1-carboxamide], inhibition was half-maximal at 2.87 nM (IC50).

As for `C[C@@H]1C(=O)NCCN1C(=O)NC(c1ccc(C(F)(F)F)nc1)C1CC(C)(C)C1` (single isomer, unassigned) [Example 33A, (2R)-N-((R or S)-(3,3-dimethylcyclobutyl)(6-(trifluoromethyl)pyridin-3-yl)methyl)-2-methyl-3-oxopiperazine-1-carboxamide], the IC50 is 135 nM.

For orientation: IC50 means the concentration at which inhibition is half-maximal. A lower IC50 goes with greater potency in that assay.
